The test system of data set [1] is Erysiphe graminis f. sp. tritici. The data set can be described thus: In vivo test on Erysiphe graminis f. sp. tritici (powdery mildew of wheat). The following applies: Blumeria graminis; dose of 330 ppm; wheat plants sprayed 24 hours before contamination; grading 7 to 14 days after contamination vs control plants; read-out: good (at least 50%) or total protection. The method, then:
In Vivo Test on Erysiphe graminis f. sp. tritici (Powdery Mildew of Wheat)
(§1) The active ingredient tested is prepared by potter homogenisation in a concentrated suspension type formulation at 100 g/l. This suspension is then diluted with water to obtain the desired active material concentration.
Wheat plants (Audace variety) in starter cups, sown on 50/50 peat soil-pozzolana substrate and grown at 12° C., are treated at the 1-leaf stage (10 cm tall) by spraying with the aqueous suspension described above.
(§2) Plants, used as controls, are treated with an aqueous solution not containing the active material.
After 24 hours, the plants are contaminated by dusting them with Erysiphe graminis f. sp. tritici spores, the dusting being carried out using diseased plants.
Grading is carried out 7 to 14 days after the contamination, in comparison with the control plants.
Under these conditions, good (at least 50%) or total protection is observed at a dose of 330 ppm with the following compounds: 1, 3, 4, 5, 6, 8, 9, 10, 11, 12, 13, 18, 38, 50, 43 and 45.

The next data set has as its system Pyrenophora teres. The data set is described as follows: In vivo test on Pyrenophora teres (barley net blotch). The following applies: 288 h, dose of 330 ppm, barley plants sprayed 24 hours before contamination, grading 12 days after contamination vs control plants, read-out: good (at least 50%) or total protection. The method, then: In Vivo Test on Pyrenophora teres (Barley Net Blotch)
as §1
Barley plants (Express variety) in starter cups, sown on a 50/50 peat soil-pozzolana substrate and grown at 12° C., are treated at the 1-leaf stage (10 cm tall) by spraying with the aqueous suspension described above. Plants, used as controls, are treated with an aqueous solution not containing the active material.
After 24 hours, the plants are contaminated by spraying them with an aqueous suspension of Pyrenophora teres spores (12,000 spores per ml). The spores are collected from a 12-day-old culture. The contaminated barley plants are incubated for 24 hours at about 20° C. and at 100% relative humidity, and then for 12 days at 80% relative humidity.

The subject of another data set is Alternaria brassicae. The data set is described as follows: In vivo test on Alternaria brassicae (leaf spot of crucifers) on radish plants. The following applies: Alternaria brassicae; dose of 330 ppm; radish plants sprayed 24 hours before contamination; grading 6 to 7 days after contamination vs control plants; read-out: good (at least 50%) or total protection. The method, then: In Vivo Test on Alternaria brassicae (Leaf Spot of Crucifers)
as §1
Radish plants (Pernot variety) in starter cups, sown on a 50/50 peat soil-pozzolana substrate and grown at 18-20° C., are treated at the cotyledon stage by spraying with the aqueous suspension described above.
as §2
After 24 hours, the plants are contaminated by spraying them with an aqueous suspension of Alternaria brassicae spores (40,000 spores per cm^3). The spores are collected from a 12 to 13 days-old culture.
The contaminated radish plants are incubated for 6-7 days at about 18° C., under a humid atmosphere.
Grading is carried out 6 to 7 days after the contamination, in comparison with the control plants.

A further data set relates to Botrytis cinerea. The data set is described as follows: In vivo test on Botrytis cinerea (cucumber grey mould). The note with it: Botrytis cinerea; dose of 330 ppm; cucumber plants sprayed 24 hours before contamination; grading 5/7 days after contamination vs control plants; read-out: good (at least 50%) or total protection. The method, then:
In Vivo Test on Botrytis cinerea (Cucumber Grey Mould)
as §1
Cucumber plants (Marketer variety) in starter cups, sown on a 50/50 peat soil-pozzolana substrate and grown at 18-20° C., are treated at the cotyledon Z11 stage by spraying with the aqueous suspension described above. Plants, used as controls, are treated with an aqueous solution not containing the active material.
After 24 hours, the plants are contaminated by depositing drops of an aqueous suspension of Botrytis cinerea spores (150,000 spores per ml) on upper surface of the leaves. The spores are collected from a 15-day-old culture and are suspended in a nutrient solution composed of:
The contaminated cucumber plants are settled for 5/7 days in a climatic room at 15-11° C. (day/night) and at 80% relative humidity.
Grading is carried out 5/7 days after the contamination, in comparison with the control plants. Under these conditions, good (at least 50%) or total protection is observed at a dose of 330 ppm with the following compounds: 1, 2, 3, 4, 5, 6, 9, 10, 13, 18, 21, 22, 23, 25, 26, 27, 28, 29, 32, 34, 35, 38, 40, 43, 44, 45, 46, 47, 50, 51, 52, 53, 57 and 62.

What is called melting point is the temperature, or range, at which the solid turns liquid.

Molecules are shown by their SMILES.

Take `O=C(NCCc1ncc(Cl)cc1Cl)c1ccccc1I` [Compound 5, N-[2-(3,5-dichloro-2-pyridinyl)ethyl]-2-(iodo)benzamide]: the melting point came out at 133 °C. Moreover, the pest or weed control at 330 ppm in data set [1] was ≥ 50%. Moreover, the pest or weed control at 330 ppm in the data set with Pyrenophora teres was ≥ 50%. Also, in the data set with Alternaria brassicae, the pest or weed control at 330 ppm is ≥ 50%. In the data set on Botrytis cinerea, the pest or weed control at 330 ppm was ≥ 50%.
With `Cc1cc(Br)cnc1CCNC(=O)c1ccccc1C(F)(F)F` [Compound 18], the pest or weed control at 330 ppm (in data set [1]; with Pyrenophora teres; in the data set with Alternaria brassicae; in the data set with Botrytis cinerea) was ≥ 50% each time.
As to `Cc1c(F)c(F)nc(CCNC(=O)c2ccccc2I)c1F` [Compound 43], the pest or weed control at 330 ppm (in data set [1]; with Pyrenophora teres; with Alternaria brassicae; with Botrytis cinerea) was ≥ 50% each time.
Regarding `Cc1ccccc1C(=O)NCCc1ncc(Cl)cc1Cl` [Compound 3], the pest or weed control at 330 ppm (in data set [1]; with Pyrenophora teres; in the data set on Alternaria brassicae; in the data set with Botrytis cinerea) was ≥ 50% throughout.
For the molecule `O=C(NCCc1ncccc1Cl)c1ccccc1C(F)(F)F` [Compound 6, N-[2-(3-chloro-2-pyridinyl)ethyl]-2-(trifluoromethyl)benzamide], the pest or weed control at 330 ppm (in data set [1]; in the data set with Alternaria brassicae; in the data set on Botrytis cinerea) was ≥ 50% in each case.
Turning to `O=C(NCCc1ncc(Cl)cc1F)c1ccccc1C(F)(F)F` [Compound 10], the pest or weed control at 330 ppm (in data set [1]; with Pyrenophora teres; with Alternaria brassicae; with Botrytis cinerea) was ≥ 50% throughout.
Regarding `O=C(NCCc1ncc(Cl)cc1Br)c1ccccc1C(F)(F)F` [Compound 38], the pest or weed control at 330 ppm (in data set [1]; with Pyrenophora teres; with Alternaria brassicae; with Botrytis cinerea) was ≥ 50% each time.
As for `O=C(NCCc1nc(F)c(F)cc1F)c1ccccc1C(F)(F)F` [Compound 12], the pest or weed control at 330 ppm (in data set [1]; with Pyrenophora teres; with Alternaria brassicae) was ≥ 50% in each case.
With `Cc1ccc(CCNC(=O)c2ccccc2C(F)(F)F)nc1` [Compound 9], the pest or weed control at 330 ppm (in data set [1]; with Pyrenophora teres; with Alternaria brassicae; in the data set with Botrytis cinerea) was ≥ 50% each time.
Take `O=C(NCCc1nc(F)c(F)cc1F)c1ccccc1I` [Compound 45]: the pest or weed control at 330 ppm (in data set [1]; with Pyrenophora teres; in the data set with Alternaria brassicae; in the data set with Botrytis cinerea) was ≥ 50% throughout.
On to `O=C(NCCc1ncc(Cl)cc1Cl)c1ccccc1C(F)(F)F` [Compound 1, N-[2-(3,5-dichloro-2-pyridinyl)ethyl]-2-(trifluoromethyl)benzamide], for which the melting point was 118 °C. In addition, the pest or weed control at 330 ppm in data set [1] is ≥ 50%. In addition, the pest or weed control at 330 ppm in the data set on Pyrenophora teres was ≥ 50%. The pest or weed control at 330 ppm in the data set with Alternaria brassicae was ≥ 50%. For the same molecule, the pest or weed control at 330 ppm in the data set with Botrytis cinerea was ≥ 50%.
Consider `O=C(NCCc1nc(F)ccc1Cl)c1ccccc1C(F)(F)F` [Compound 13], for which the pest or weed control at 330 ppm (in data set [1]; in the data set with Pyrenophora teres; in the data set on Alternaria brassicae; in the data set on Botrytis cinerea) was ≥ 50% in each case.

The values above are taken from US7723364B2, “N-[2-(2-pyridinyl) ethyl]benzamide compounds and their use as fungicides” (Bayer Cropscience SA, priority 2003, dated 2010).
